Series [1] has as its system P. aeruginosa ΔbifAΔwspF mutant. As to the kind of experiment: biofilm formation of bifA knockout, crystal violet. Type of series: cell-based, Pseudomonas aeruginosa. The note with it: 100 μM, 16 hours of growth, FIG. 6B left. As for the experimental part: Biofilm quantification was done using a 96 well microtiter platform where 20 hour old cultures of the deletion mutant of P. aeruginosa PA01 (ΔwspF) and its isogenic bifA deletion mutant (ΔbifA-) were diluted […] into 100 μL ABTrace media aliquots (Pamp and Tolker-Nielsen, 2007) supplemented with 0.2% glucose, 0.5% casa amino acids, 1 μM FeCl3, 0.2% DMSO and either 100 μM or 0 μM of H6-335-P1. The resulting cultures were incubated at 37° C. and 160 RPM, and following 16 hours of growth the amounts of biofilm were quantified by the use of crystal violet staining.

For series [2], the system named is P. aeruginosa biofilms on implants. Description: P. aeruginosa-infected peritoneal implant model in mice. Type of series: in vivo. The conditions noted are these: intraperitoneal. On the procedure: Silicone implants (5 mm long, 6 mm OD×4 mm ID) were incubated with P. aeruginosa cultures (OD 0.1) for 20 hours to allow bacterial adhesion and subsequent coating. At time t=0, mice had the implants inserted in the peritoneal cavity and biofilm developed on the implants for 24 hours. (A) At 24 hours and 26 hours post-insertion of the implants (PI), the mice were treated with either H6-335-P1 (named “H6 P1” in FIG. 8) 25 μM (˜6 μg/g BW) in 0.2% cyclodextrin or 0.2% cyclodextrin, and at 26 hours PI with 30 μg per g BW tobramycin (TOB) or 0.9% NaCl. […] At 28 hours PI the mice were euthanized, and the bacterial contents as CFU per implant were determined. The median CFU per implant for the placebo group was set to 100. The median CFU per implant for the placebo groups were 8.5×10^6 (A) and 1.5×10^6 (B). Horizontal lines indicate median CFU for each group. Each symbol represents a mouse. Significance levels are based on Mann-Whitney U test (analysis of non-parametric data). IP administered doses: TOB: 30 mg/Kg BW, CIP: 10 mg/Kg BW, H6 P1: 2×6 mg/Kg BW.
The inventors first determined H6-335-P1 anti-biofilm efficacy in implant-harboring mice at low dosages (concentration) of 5 to 25 μM H6-335-P1 which corresponds to 1 to 5 μg H6-335-P1 per gram of body weight. […]

Series [3] in a line: solubility in aqueous media. The conditions noted are these: aqueous media.
In a further series the test system is P. aeruginosa biofilms. As to the kind of experiment: time dependent antibiotic killing of peg biofilms after H6-335-P1 treatment. Type of series: cell-based, Pseudomonas aeruginosa. The note with it: 2 hours 100 μM H6-335-P1, then 30 μg/ml tobramycin or 0.5 μg/ml ciprofloxacin.
The next series deals with Pseudomonas flourescens. Description: biofilm formation, crystal violet, host range. It counts as cell-based. The note with it: 100 μM, 8 hours, FIG. 11. As for the experimental part:
(§1) To determine the host range of H6-335-P1, the inventors conducted a Blast search for analogs of the P. aeruginosa BifA phosphodiesterase protein encoded by gene PA4367 (bifA).
(§2) Briefly, the experiment presented in FIG. 11 were carried out in 96 well microtiter plates as follows. 20 hours old cultures of either P. aeruginosa, P. putida or P. flourescens were diluted 1000 fold into 100 μL aliquots of ABtrace media supplemented with 0.5% Cas amino acids, 0.2% glucose, 1 μM FeCl3, 0.2% DMSO and either 100 μM H6-335-P1 or none H6-335-P1. The resulting microtiter plate were sealed with an air permeable lid and the cultures were incubated at 37° C. on rotary shaker at 160 RPM. Following 8 hours of growth the culture supernatants were discarded and the amount of biofilm present in each well were quantified by the use of crystal violet staining. Finally, the obtained values of crystal violet (biofilm material) were plotted as a function of strain and the presence of 100 μM H6-335-P1 or absence of H6-335-P1. In FIG. 11 means and standard deviations (bars) represents 4 biological replicates (n=4).

The subject of the next series is Pseudomonas putida. Description: biofilm formation, crystal violet, host range. Type of series: cell-based. The note with it: 100 μM, 8 hours, FIG. 11. On the procedure: as §1, §2
The test system of series [4] is P. aeruginosa ΔbifAΔwspFΔpelΔpsl/pCdrA-gfp. As to the kind of experiment: c-di-GMP monitor read-out in bifA knockout. It counts as cell-based, Pseudomonas aeruginosa. The conditions noted are these: 100 μM, 18 hours of cultivation, FIG. 6B right. On the procedure: This experiment was done using a 96 well microtiter format where 20 hour old cultures of the P. aeruginosa ΔwspFΔpelΔpsl/pCdrA-gfp c-di-GMP monitor strain and the P. aeruginosa ΔbifAΔwspFΔpelΔpsl/pCdrA-gfp c-di-GMP monitor strain were diluted 100 fold into 100 μL ABTrace media aliquots supplemented with 0.2% glucose, 0.5% casamino acids, 1 μM FeCl3, 60 μg/mL of gentamicin, 1% DMSO and either 100 μM or 0 μM of H6-335-P1. The resulting microtitter was incubated at 37° C. and 440 RPM in a Tecan reader, and corresponding values of GFP fluorescence (FU) and cell density (OD600) was measured every 20 minutes for 24 hours.

Molecules are shown by their SMILES.

For the molecule `N=C1NN=C(N)/C1=N/Nc1ccccc1F` [H6-335-P1, 4-[(2-fluorophenyl) hydrazinylidene]pyrazole-3,5-diamine], the “response of biofilm formation of ΔbifAΔwspF mutant” value in series [1] was “no longer responded to the presence of H6-335-P1”. In addition, the “biofilm bacteria dispersed from the implant” value in series [2] (5 to 25 μM (1 to 5 μg per gram of body weight), four hours of exposure, not shown) was “up to 90%”. In series [2] (FIG. 8), the “CFU on implants, combinatorial treatment followed by tobramycin or ciprofloxacin” value is “synergistic antimicrobial (lethal) effects”. Besides, the solubility in series [3] is below 2 µM. In addition, in the series with P. aeruginosa biofilms, the “surviving cells of biofilms after antibiotic challenge” value was “substantial decrease of surviving cells”. Further, in the series with Pseudomonas flourescens, the “biofilm formation of Pseudomonas flourescens” value is “significantly less biofilm”. Further, the “biofilm formation of Pseudomonas putida” value in the series with Pseudomonas putida is reported as “significantly less biofilm”. For the same molecule, the “fluorescent read-out of ΔbifA c-di-GMP monitor strain” value in series [4] is recorded as “completely unaffected”.

For the origin of these results see patent publication US20230321043A1, “COMPOUNDS HAVING PSEUDOMONAS ANTI-BIOFILM PROPERTIES” (Københavns Universitet, priority 2020, published 2023).
